Assay results: ChEMBL document CHEMBL1131309, “Isoindol-1-one analogues of 4-(2'-methoxyphenyl)-1-[2'-[N-(2"-pyridyl)-p-iodobenzamido]ethyl]pipera zine (p-MPPI) as 5-HT1A receptor ligands” (J Med Chem, 1998)
One block for each compound: values may come before it.

Columns and labels:
Rattus norvegicus [1] = experiment: Biodistribution was measured in blood of rat by injecting the radiolabeled compound intravenously and the value measured after 60 min; format: ADME, organism-based; conditions: in vivo, iv, 1 h
Rattus norvegicus [2] = experiment: Biodistribution was measured in rat cortex by injecting the radiolabeled compound intravenously and the value measured after 60 min; format: ADME, organism-based; conditions: in vivo, iv, 1 h
Rattus norvegicus [3] = experiment: Biodistribution was measured in rat liver by injecting the radiolabeled compound intravenously and the value measured after 60 min; format: ADME, organism-based; conditions: in vivo, iv, 1 h
[4] = Biodistribution was measured in hippocampus region(HP/CB) by injecting the radiolabeled compound intravenously and the value measured after 60 min; format: ADME, organism-based; conditions: in vivo, iv, 1 h
Rattus norvegicus [5] = experiment: Biodistribution was measured in rat heart by injecting the radiolabeled compound intravenously and the value measured after 30 min; format: ADME, organism-based; conditions: in vivo, iv, 0.5 h
Rattus norvegicus [6] = experiment: Biodistribution was measured in rat cerebellum by injecting the radiolabeled compound intravenously and the value measured after 2 min; format: ADME, organism-based; conditions: in vivo, iv
Rattus norvegicus [7] = experiment: Biodistribution was measured in rat cerebellum by injecting the radiolabeled compound intravenously and the value measured after 60 min; format: ADME, organism-based; conditions: in vivo, iv, 1 h
Rattus norvegicus [8] = experiment: Biodistribution was measured in rat hippocampus by injecting the radiolabeled compound intravenously and the value measured after 30 min; format: ADME, organism-based; conditions: in vivo, iv, 0.5 h
Rattus norvegicus [9] = experiment: Biodistribution was measured in rat skin by injecting the radiolabeled compound intravenously and the value measured after 60 min; format: ADME, organism-based, Zone of skin; conditions: in vivo, iv, 1 h
Rattus norvegicus [10] = experiment: Biodistribution was measured in rat striatum by injecting the radiolabeled compound intravenously and the value measured after 30 min; format: ADME, organism-based; conditions: in vivo, iv, 0.5 h
Rattus norvegicus [11] = experiment: Biodistribution was measured in rat brain by injecting the radiolabeled compound intravenously and the value measured after 60 min; format: ADME, organism-based; conditions: in vivo, iv, 1 h
Rattus norvegicus [12] = experiment: Biodistribution was measured in rat striatum by injecting the radiolabeled compound intravenously and the value measured after 2 min; format: ADME, organism-based; conditions: in vivo, iv
Rattus norvegicus [13] = experiment: Biodistribution was measured in rat muscle by injecting the radiolabeled compound intravenously and the value measured after 2 min; format: ADME, organism-based, Muscle tissue; conditions: in vivo, iv
[14] = biological target: T1, 5-hydroxytryptamine receptor 1A (Rattus norvegicus, UniProt P19327)
T1 sequence (P19327 whole entry): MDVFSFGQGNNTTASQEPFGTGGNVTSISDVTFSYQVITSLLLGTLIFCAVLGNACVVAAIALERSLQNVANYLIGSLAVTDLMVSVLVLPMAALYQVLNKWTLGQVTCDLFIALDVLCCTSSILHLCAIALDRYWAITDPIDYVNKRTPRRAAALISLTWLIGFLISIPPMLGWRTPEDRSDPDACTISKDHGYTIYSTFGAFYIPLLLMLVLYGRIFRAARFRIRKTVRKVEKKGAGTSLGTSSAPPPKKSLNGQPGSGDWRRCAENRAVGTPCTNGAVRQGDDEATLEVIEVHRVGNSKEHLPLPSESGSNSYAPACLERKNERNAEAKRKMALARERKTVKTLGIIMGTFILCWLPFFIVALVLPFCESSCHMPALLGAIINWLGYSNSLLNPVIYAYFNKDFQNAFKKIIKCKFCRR
Description: (§1) In vitro binding affinity for 5-hydroxytryptamine 1A receptor in rat hippocampal membranes by [125I]-labeled agonist displacement.

Rattus norvegicus [15] = experiment: Biodistribution was measured in rat cortex by injecting the radiolabeled compound intravenously and the value measured after 2 min; format: ADME, organism-based; conditions: in vivo, iv
Rattus norvegicus [16] = experiment: Biodistribution was measured in rat spleen by injecting the radiolabeled compound intravenously and the value measured after 30 min; format: ADME, organism-based; conditions: in vivo, iv, 0.5 h
Rattus norvegicus [17] = experiment: Biodistribution was measured in rat hippocampus by injecting the radiolabeled compound intravenously and the value measured after 2 min; format: ADME, organism-based; conditions: in vivo, iv
Rattus norvegicus [18] = experiment: Biodistribution was measured in rat kidney by injecting the radiolabeled compound intravenously and the value measured after 2 min; format: ADME, organism-based; conditions: in vivo, iv
Rattus norvegicus [19] = experiment: Biodistribution was measured in rat lung by injecting the radiolabeled compound intravenously and the value measured after 2 min; format: ADME, organism-based; conditions: in vivo, iv
Rattus norvegicus [20] = experiment: Biodistribution was measured in rat liver by injecting the radiolabeled compound intravenously and the value measured after 2 min; format: ADME, organism-based; conditions: in vivo, iv
Rattus norvegicus [21] = experiment: Biodistribution was measured in rat thyroid by injecting the radiolabeled compound intravenously and the value measured after 30 min; format: ADME, organism-based, Thyroid gland; conditions: in vivo, iv, 0.5 h
Rattus norvegicus [22] = experiment: Biodistribution was measured in blood of rat by injecting the radiolabeled compound intravenously and the value measured after 30 min; format: ADME, organism-based; conditions: in vivo, iv, 0.5 h
Rattus norvegicus [23] = experiment: Biodistribution was measured in rat lung by injecting the radiolabeled compound intravenously and the value measured after 30 min; format: ADME, organism-based; conditions: in vivo, iv, 0.5 h
Rattus norvegicus [24] = experiment: Biodistribution was measured in rat kidney by injecting the radiolabeled compound intravenously and the value measured after 30 min; format: ADME, organism-based; conditions: in vivo, iv, 0.5 h
Rattus norvegicus [25] = experiment: Biodistribution was measured in rat muscle by injecting the radiolabeled compound intravenously and the value measured after 30 min; format: ADME, organism-based, Muscle tissue; conditions: in vivo, iv, 0.5 h
Rattus norvegicus [26] = experiment: Biodistribution was measured in rat thyroid by injecting the radiolabeled compound intravenously and the value measured after 60 min; format: ADME, organism-based, Thyroid gland; conditions: in vivo, iv, 1 h
Rattus norvegicus [27] = experiment: Biodistribution was measured in rat spleen by injecting the radiolabeled compound intravenously and the value measured after 60 min; format: ADME, organism-based; conditions: in vivo, iv, 1 h
Rattus norvegicus [28] = experiment: Biodistribution was measured in rat striatum by injecting the radiolabeled compound intravenously and the value measured after 60 min; format: ADME, organism-based; conditions: in vivo, iv, 1 h
Rattus norvegicus [29] = experiment: Biodistribution was measured in rat hippocampus by injecting the radiolabeled compound intravenously and the value measured after 60 min; format: ADME, organism-based; conditions: in vivo, iv, 1 h
Rattus norvegicus [30] = experiment: Biodistribution was measured in rat muscle by injecting the radiolabeled compound intravenously and the value measured after 60 min; format: ADME, organism-based, Muscle tissue; conditions: in vivo, iv, 1 h
Rattus norvegicus [31] = experiment: Biodistribution was measured in rat skin by injecting the radiolabeled compound intravenously and the value measured after 30 min; format: ADME, organism-based, Zone of skin; conditions: in vivo, iv, 0.5 h
[32] = Biodistribution was measured in hippocampus region(HP/CB) by injecting the radiolabeled compound intravenously and the value measured after 30 min; format: ADME, organism-based; conditions: in vivo, iv, 0.5 h
Rattus norvegicus [33] = experiment: Biodistribution was measured in rat liver by injecting the radiolabeled compound intravenously and the value measured after 30 min; format: ADME, organism-based; conditions: in vivo, iv, 0.5 h
Rattus norvegicus [34] = experiment: Biodistribution was measured in blood of rat by injecting the radiolabeled compound intravenously and the value measured after 2 min; format: ADME, organism-based; conditions: in vivo, iv
Rattus norvegicus [35] = experiment: Biodistribution was measured in rat cortex by injecting the radiolabeled compound intravenously and the value measured after 30 min; format: ADME, organism-based; conditions: in vivo, iv, 0.5 h
Rattus norvegicus [36] = experiment: Biodistribution was measured in rat thyroid by injecting the radiolabeled compound intravenously and the value measured after 2 min; format: ADME, organism-based, Thyroid gland; conditions: in vivo, iv
Rattus norvegicus [37] = experiment: Biodistribution was measured in rat brain by injecting the radiolabeled compound intravenously and the value measured after 30 min; format: ADME, organism-based; conditions: in vivo, iv, 0.5 h
[38] = Biodistribution was measured in hippocampus region(HP/CB) by injecting the radiolabeled compound intravenously and the value measured after 2 min; format: ADME, organism-based; conditions: in vivo, iv
Rattus norvegicus [39] = experiment: Biodistribution was measured in rat heart by injecting the radiolabeled compound intravenously and the value measured after 2 min; format: ADME, organism-based; conditions: in vivo, iv
Rattus norvegicus [40] = experiment: Biodistribution was measured in rat lung by injecting the radiolabeled compound intravenously and the value measured after 60 min; format: ADME, organism-based; conditions: in vivo, iv, 1 h
Rattus norvegicus [41] = experiment: Biodistribution was measured in rat spleen by injecting the radiolabeled compound intravenously and the value measured after 2 min; format: ADME, organism-based; conditions: in vivo, iv
[42] = biological target: T1, 5-hydroxytryptamine receptor 1A; remark: listed apart in the source
Description: as §1

Rattus norvegicus [43] = experiment: Biodistribution was measured in rat kidney by injecting the radiolabeled compound intravenously and the value measured after 60 min; format: ADME, organism-based; conditions: in vivo, iv, 1 h
Rattus norvegicus [44] = experiment: Biodistribution was measured in rat brain by injecting the radiolabeled compound intravenously and the value measured after 2 min; format: ADME, organism-based; conditions: in vivo, iv
Rattus norvegicus [45] = experiment: Biodistribution was measured in rat heart by injecting the radiolabeled compound intravenously and the value measured after 60 min; format: ADME, organism-based; conditions: in vivo, iv, 1 h
Rattus norvegicus [46] = experiment: Biodistribution was measured in rat cerebellum by injecting the radiolabeled compound intravenously and the value measured after 30 min; format: ADME, organism-based; conditions: in vivo, iv, 0.5 h

Biodistribution (Rattus norvegicus [1]): 1.22 % dose organ-1
Biodistribution (Rattus norvegicus [2]): 0.028 % dose organ-1
Biodistribution (Rattus norvegicus [3]): 10.76 % dose organ-1
Biodistribution [4]: 1.06 % dose organ-1
Biodistribution (Rattus norvegicus [5]): 0.3 % dose organ-1
Biodistribution (Rattus norvegicus [6]): 0.202 % dose organ-1
Biodistribution (Rattus norvegicus [7]): 0.035 % dose organ-1
Biodistribution (Rattus norvegicus [8]): 0.09 % dose organ-1
Biodistribution (Rattus norvegicus [9]): 4.96 % dose organ-1
Biodistribution (Rattus norvegicus [10]): 0.093 % dose organ-1
Biodistribution (Rattus norvegicus [11]): 0.04 % dose organ-1
Biodistribution (Rattus norvegicus [12]): 0.204 % dose organ-1
Biodistribution (Rattus norvegicus [13]): 9.45 % dose organ-1
Ki [14]: 69 pM
Biodistribution (Rattus norvegicus [15]): 0.242 % dose organ-1
Biodistribution (Rattus norvegicus [16]): 0.22 % dose organ-1
Biodistribution (Rattus norvegicus [17]): 0.177 % dose organ-1
Biodistribution (Rattus norvegicus [18]): 4.01 % dose organ-1
Biodistribution (Rattus norvegicus [19]): 2.05 % dose organ-1
Biodistribution (Rattus norvegicus [20]): 21.36 % dose organ-1
Biodistribution (Rattus norvegicus [21]): 0.05 % dose organ-1
Biodistribution (Rattus norvegicus [22]): 1.92 % dose organ-1
Biodistribution (Rattus norvegicus [23]): 0.7 % dose organ-1
Biodistribution (Rattus norvegicus [24]): 2.32 % dose organ-1
Biodistribution (Rattus norvegicus [25]): 14.35 % dose organ-1
Biodistribution (Rattus norvegicus [26]): 0.06 % dose organ-1
Biodistribution (Rattus norvegicus [27]): 0.15 % dose organ-1
Biodistribution (Rattus norvegicus [28]): 0.035 % dose organ-1
Biodistribution (Rattus norvegicus [29]): 0.037 % dose organ-1
Biodistribution (Rattus norvegicus [30]): 8.83 % dose organ-1
Biodistribution (Rattus norvegicus [31]): 5.8 % dose organ-1
Biodistribution [32]: 1.12 % dose organ-1
Biodistribution (Rattus norvegicus [33]): 18.65 % dose organ-1
Biodistribution (Rattus norvegicus [34]): 2.84 % dose organ-1
Biodistribution (Rattus norvegicus [35]): 0.081 % dose organ-1
Biodistribution (Rattus norvegicus [36]): 0.073 % dose organ-1
Biodistribution (Rattus norvegicus [37]): 0.11 % dose organ-1
Biodistribution [38]: 0.87 % dose organ-1
Biodistribution (Rattus norvegicus [39]): 1.42 % dose organ-1
Biodistribution (Rattus norvegicus [40]): 0.56 % dose organ-1
Biodistribution (Rattus norvegicus [41]): 0.26 % dose organ-1
Ki [42]: 69 pM
Biodistribution (Rattus norvegicus [43]): 1.42 % dose organ-1
Biodistribution (Rattus norvegicus [44]): 0.26 % dose organ-1
Biodistribution (Rattus norvegicus [45]): 0.15 % dose organ-1
Biodistribution (Rattus norvegicus [46]): 0.08 % dose organ-1
Compound: COc1ccccc1N1CCN(CCN2C(=O)c3cc(I)ccc3C2c2ccccc2)CC1 (centres undefined)

Ki [14]: 51700 pM
Compound: COc1ccc([N+](=O)[O-])cc1N1CCN(CCN2C(=O)c3cc(I)ccc3C2c2ccccc2)CC1 (centres undefined)

Ki [14]: 45 pM
Compound: COc1ccccc1N1CCN(CCN2C(=O)c3cc([N+](=O)[O-])ccc3C2c2ccccc2)CC1 (centres undefined)

Ki [14]: 340 pM
Compound: COc1ccccc1N1CCN(CCN2C(=O)c3cc([N+](=O)[O-])ccc3C2(O)c2ccccc2)CC1 (centres undefined)
